Data as given in patent publication US9777003B2, “Tricyclic heterocycles as bet protein inhibitors” (Incyte Corporation, priority 2013, dated 2017).
pIC50: −log10 of the molar value. Structures can show the parent of a compound that is named as a salt.

Legend:
BRD4-BD2 = BRD4-BD2 (Homo sapiens (Human), UniProt O60885); test: BRD4 AlphaScreen assay, BRD4-BD2; assay type: binding; conditions: biotin-labeled tetra-acetylated histone H4 peptide, 75 min, room temperature, read-out: BRD4 BD-2 enzyme IC50
Description: (§1) BRD4-BD1 and BRD4-BD2 assays were conducted in white 384-well polystyrene plate in a final volume of 20 μL for BD1 and 40 μL for BD2. Inhibitors were first serially diluted in DMSO and added to the plate wells before the addition of other reaction components. The final concentration of DMSO in the assay was 1.25% (BD1) and 0.83% (BD2). The assays were carried out at room temperature for 75 min. in the assay buffer (50 mM HEPES, pH 7.4, 100 mM NaCl, 0.05% CHAPS, 0.01% BSA), containing 50 nM Biotin-labeled tetra-acetylated histone H4 peptide (H4Ac4), 3.8 nM (BRD4-BD1, BPS Bioscience #31040) or 20 nM (BRD4-BD2, BPS Bioscience #31041). The reaction followed by the addition of 20 μL of assay buffer supplemented with Streptavidin donor beads (PerkinElmer 6760002) and GSH Acceptor beads (PerkinElmer-AL109C) at 4 μg/mL under reduced light. After plate sealing, the plate was incubated in the dark at room temperature for 75 min. before reading on a PHERAstar FS plate reader (BMG Labtech). IC50 determination was performed by fitting the curve of percent control activity versus the log of the inhibitor concentration using the GraphPad Prism 5.0 software.

BRD4-BD1 = BRD4-BD1 (Homo sapiens (Human), UniProt O60885); test: BRD4 AlphaScreen assay, BRD4-BD1; assay type: binding; conditions: biotin-labeled tetra-acetylated histone H4 peptide, 75 min, room temperature, read-out: BRD4 BD-1 enzyme IC50
Description: as §1

Row | pIC50 (BRD4-BD2) | pIC50 (BRD4-BD1) | SMILES
1 | ≥ 7.00 | 6.00 to 7.00 | Cc1nnc2ccc3c(ccn3C(C)c3ccccc3)n12 (racemic) [Example 4, 1-methyl-6-(1-phenylethyl)-6H-pyrrolo[2,3-e][1,2,4]triazolo[4,3-a]pyridine]
2 | 6.00 to 7.00 | 6.00 to 7.00 | CCCCC(c1ccccc1)n1c(C)cc2c1ccc1nnc(C)n12 (racemic) [Example 24, 1,7-dimethyl-6-(1-phenylpentyl)-6H-pyrrolo[2,3-e][1,2,4]triazolo[4,3-a]pyridine]
3 | 6.00 to 7.00 | 6.00 to 7.00 | Cc1cc2c(ccc3nnc(C)n32)n1C(CO)c1ccccc1 (racemic) [Example 29, 2-(1,7-dimethyl-6H-pyrrolo[2,3-e][1,2,4]triazolo[4,3-a]pyridin-6-yl)-2-phenylethanol]
4 | ≥ 7.00 | ≥ 7.00 | Cc1nnc2ccc3c(cc(-c4ccn(C(C)CC#N)n4)n3Cc3ccccc3)n12 (racemic) [Example 87, 3-[3-(6-benzyl-1-methyl-6H-pyrrolo[2,3-e][1,2,4]triazolo[4,3-a]pyridin-7-yl)-1H-pyrazol-1-yl]butanenitrile Trifluoroacetate Salt]
5 | ≥ 7.00 | ≥ 7.00 | Cc1nnc2ccc3c(cc(-c4ccn(CC(C)C#N)n4)n3Cc3ccccc3)n12 (racemic) [Example 88, 3-[3-(6-benzyl-1-methyl-6H-pyrrolo[2,3-e][1,2,4]triazolo[4,3-a]pyridin-7-yl)-1H-pyrazol-1-yl]-2-methylpropanenitrile Trifluoroacetate Salt]
6 | ≥ 7.00 | ≥ 7.00 | Cc1cc2c(cc(NC3CCCN(C)C3)c3nnc(C)n32)n1Cc1ccccc1 (racemic) [Example 144, 6-benzyl-1,7-dimethyl-N-(1-methylpiperidin-3-yl)-6H-pyrrolo[2,3-e][1,2,4]triazolo[4,3-a]pyridin-4-amine]
7 | ≥ 7.00 | ≥ 7.00 | Cc1cc2c(cc(NC3CCN(C)C3)c3nnc(C)n32)n1Cc1ccccc1 (racemic) [Example 145, 6-benzyl-1,7-dimethyl-N-(1-methylpyrrolidin-3-yl)-6H-pyrrolo[2,3-e][1,2,4]triazolo[4,3-a]pyridin-4-amine bis(trifluoroacetate) Salt]
8 | 6.00 to 7.00 | 5.00 to 6.00 | Cc1nnc2ccc3c(cc(C4CCNC4)n3Cc3ccccc3)n12 (racemic) [Example 186, 6-Benzyl-1-methyl-7-pyrrolidin-3-yl-6H-pyrrolo[2,3-e][1,2,4]triazolo[4,3-a]pyridine bis(trifluoroacetate) Salt]
9 | 5.00 to 6.00 | 5.00 to 6.00 | CC(=O)N1CCC(c2cc3c(ccc4nnc(C)n43)n2Cc2ccccc2)C1 (racemic) [Example 187, 7-(1-Acetylpyrrolidin-3-yl)-6-benzyl-1-methyl-6H-pyrrolo[2,3-e][1,2,4]triazolo[4,3-a]pyridine Trifluoroacetate Salt]
10 | ≥ 7.00 | ≥ 7.00 | Cc1nnc2ccc3c(cc(-c4ncco4)n3Cc3cc(Cl)cc(CN4CCC(O)C4)c3)n12 (racemic) [Example 199, 1-(3-Chloro-5-{[1-methyl-7-(1,3-oxazol-2-yl)-6H-pyrrolo[2,3-e][1,2,4]triazolo[4,3-a]pyridin-6-yl]methyl}benzyl)pyrrolidin-3-ol bis(trifluoroacetate) Salt (Racemic)]
11 | ≥ 7.00 | ≥ 7.00 | Cc1cc2c(cc(N[C@H]3CCN(C)[C@H](C)C3)c3nnc(C)n32)n1Cc1ccccc1 (racemic) [Example 225, 6-Benzyl-N-[(2R,4S)-1,2-dimethylpiperidin-4-yl]-1,7-dimethyl-6H-pyrrolo[2,3-e][1,2,4]triazolo[4,3-a]pyridin-4-amine and 6-Benzyl-N-[(2S,4R)-1,2-dimethylpiperidin-4-yl]-1,7-dimethyl-6H-pyrrolo[2,3-e][1,2,4]triazolo[4,3-a]pyridin-4-amine]
12 | 6.00 to 7.00 | – | Cc1cc2c(ccc3nnc(C)n32)n1S(=O)(=O)c1ccccc1 [Example 2a, 1,7-dimethyl-6-(phenylsulfonyl)-6H-pyrrolo[2,3-e][1,2,4]triazolo[4,3-a]pyridine]
